# According to patent US20240316022A1 (TYRA BIOSCIENCES, INC., priority 2021, published 2024):
# Tests used:
# Assay in all cases: Kinase binding assay (kinase-tagged T7 phage, qPCR), Kd
# FGFR1 = molecular target: T1, FGFR1 (Homo sapiens, UniProt P11362); settings: read-out: FGFR1 (Kd nM)
# T1 construct: made in house; host or cells: E. coli derived from BL21, infected with T7 phage
# FGFR2 = molecular target: T2, FGFR2 (Homo sapiens, UniProt P21802); settings: read-out: FGFR2 (Kd nM)
# T2 construct: made in house; host or cells: E. coli derived from BL21, infected with T7 phage
# T2 sequence (P21802 22-821): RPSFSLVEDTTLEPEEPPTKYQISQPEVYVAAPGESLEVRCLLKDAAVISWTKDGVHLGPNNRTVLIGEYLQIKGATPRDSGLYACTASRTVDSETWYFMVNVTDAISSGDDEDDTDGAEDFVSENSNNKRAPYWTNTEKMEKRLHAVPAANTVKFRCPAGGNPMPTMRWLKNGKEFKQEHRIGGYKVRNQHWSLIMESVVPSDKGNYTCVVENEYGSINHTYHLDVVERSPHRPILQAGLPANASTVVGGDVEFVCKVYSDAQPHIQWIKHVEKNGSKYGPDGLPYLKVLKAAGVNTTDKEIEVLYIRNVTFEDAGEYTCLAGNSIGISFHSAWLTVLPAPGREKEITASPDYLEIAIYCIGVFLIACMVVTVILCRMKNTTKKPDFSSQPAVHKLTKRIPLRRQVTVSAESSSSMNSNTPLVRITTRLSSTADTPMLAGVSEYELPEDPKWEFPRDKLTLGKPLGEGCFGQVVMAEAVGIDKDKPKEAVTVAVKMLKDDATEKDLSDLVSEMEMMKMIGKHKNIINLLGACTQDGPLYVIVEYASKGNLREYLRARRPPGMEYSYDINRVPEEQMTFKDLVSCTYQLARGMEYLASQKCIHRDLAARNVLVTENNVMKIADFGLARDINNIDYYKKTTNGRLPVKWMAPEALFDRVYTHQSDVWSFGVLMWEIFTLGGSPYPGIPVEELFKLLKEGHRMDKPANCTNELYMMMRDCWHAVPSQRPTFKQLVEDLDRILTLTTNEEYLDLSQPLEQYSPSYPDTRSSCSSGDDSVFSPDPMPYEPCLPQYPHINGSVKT
# FGFR3 = molecular target: T3, FGFR3 (Homo sapiens, UniProt P22607); settings: read-out: FGFR3 (Kd nM)
# T3 construct: made in house; host or cells: E. coli derived from BL21, infected with T7 phage
# T3 sequence (P22607 23-806): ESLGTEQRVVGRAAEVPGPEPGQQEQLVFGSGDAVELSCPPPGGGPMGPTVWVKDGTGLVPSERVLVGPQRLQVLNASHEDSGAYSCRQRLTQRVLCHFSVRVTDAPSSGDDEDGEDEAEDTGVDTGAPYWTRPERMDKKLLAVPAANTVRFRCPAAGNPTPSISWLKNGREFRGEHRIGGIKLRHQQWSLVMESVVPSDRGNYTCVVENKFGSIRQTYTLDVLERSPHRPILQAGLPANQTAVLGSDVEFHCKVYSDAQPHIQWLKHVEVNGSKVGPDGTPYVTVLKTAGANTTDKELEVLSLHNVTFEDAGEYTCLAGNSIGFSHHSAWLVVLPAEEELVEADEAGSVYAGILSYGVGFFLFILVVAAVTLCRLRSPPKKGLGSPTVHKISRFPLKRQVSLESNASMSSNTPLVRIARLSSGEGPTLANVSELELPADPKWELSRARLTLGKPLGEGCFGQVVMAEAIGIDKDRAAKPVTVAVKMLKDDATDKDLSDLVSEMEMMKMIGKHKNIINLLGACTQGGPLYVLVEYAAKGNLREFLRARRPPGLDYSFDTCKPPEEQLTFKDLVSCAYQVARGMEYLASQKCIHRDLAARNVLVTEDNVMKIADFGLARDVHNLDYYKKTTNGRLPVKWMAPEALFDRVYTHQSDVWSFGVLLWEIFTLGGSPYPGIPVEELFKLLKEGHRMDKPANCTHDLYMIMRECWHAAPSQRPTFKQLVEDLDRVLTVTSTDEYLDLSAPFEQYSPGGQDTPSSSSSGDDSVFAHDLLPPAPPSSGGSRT
# FGFR4 = molecular target: T4, FGFR4 (Homo sapiens, UniProt P22455); settings: read-out: FGFR4 (Kd nM)
# T4 construct: made in house; host or cells: E. coli derived from BL21, infected with T7 phage
# T4 sequence (P22455 22-802): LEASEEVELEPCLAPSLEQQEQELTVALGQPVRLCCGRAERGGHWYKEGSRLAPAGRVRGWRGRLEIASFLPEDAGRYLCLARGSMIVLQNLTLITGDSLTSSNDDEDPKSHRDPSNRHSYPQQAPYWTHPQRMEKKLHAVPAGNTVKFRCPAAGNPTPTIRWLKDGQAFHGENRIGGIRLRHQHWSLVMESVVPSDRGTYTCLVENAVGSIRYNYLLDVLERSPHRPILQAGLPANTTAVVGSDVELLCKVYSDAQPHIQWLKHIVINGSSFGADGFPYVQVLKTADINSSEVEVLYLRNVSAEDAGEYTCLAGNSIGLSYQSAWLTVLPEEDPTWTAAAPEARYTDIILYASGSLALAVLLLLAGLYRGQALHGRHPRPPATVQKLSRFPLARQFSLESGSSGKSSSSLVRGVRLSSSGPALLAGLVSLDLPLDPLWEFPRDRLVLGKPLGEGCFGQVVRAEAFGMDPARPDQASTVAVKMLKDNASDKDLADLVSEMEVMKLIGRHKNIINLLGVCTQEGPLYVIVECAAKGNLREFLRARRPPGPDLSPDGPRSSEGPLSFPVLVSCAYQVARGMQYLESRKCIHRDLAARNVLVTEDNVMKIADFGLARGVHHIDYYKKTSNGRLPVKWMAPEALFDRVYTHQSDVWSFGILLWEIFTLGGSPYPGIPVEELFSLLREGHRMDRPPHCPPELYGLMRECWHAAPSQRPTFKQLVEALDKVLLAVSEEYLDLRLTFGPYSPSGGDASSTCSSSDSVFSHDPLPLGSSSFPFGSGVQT
# T1 sequence (P11362 22-822): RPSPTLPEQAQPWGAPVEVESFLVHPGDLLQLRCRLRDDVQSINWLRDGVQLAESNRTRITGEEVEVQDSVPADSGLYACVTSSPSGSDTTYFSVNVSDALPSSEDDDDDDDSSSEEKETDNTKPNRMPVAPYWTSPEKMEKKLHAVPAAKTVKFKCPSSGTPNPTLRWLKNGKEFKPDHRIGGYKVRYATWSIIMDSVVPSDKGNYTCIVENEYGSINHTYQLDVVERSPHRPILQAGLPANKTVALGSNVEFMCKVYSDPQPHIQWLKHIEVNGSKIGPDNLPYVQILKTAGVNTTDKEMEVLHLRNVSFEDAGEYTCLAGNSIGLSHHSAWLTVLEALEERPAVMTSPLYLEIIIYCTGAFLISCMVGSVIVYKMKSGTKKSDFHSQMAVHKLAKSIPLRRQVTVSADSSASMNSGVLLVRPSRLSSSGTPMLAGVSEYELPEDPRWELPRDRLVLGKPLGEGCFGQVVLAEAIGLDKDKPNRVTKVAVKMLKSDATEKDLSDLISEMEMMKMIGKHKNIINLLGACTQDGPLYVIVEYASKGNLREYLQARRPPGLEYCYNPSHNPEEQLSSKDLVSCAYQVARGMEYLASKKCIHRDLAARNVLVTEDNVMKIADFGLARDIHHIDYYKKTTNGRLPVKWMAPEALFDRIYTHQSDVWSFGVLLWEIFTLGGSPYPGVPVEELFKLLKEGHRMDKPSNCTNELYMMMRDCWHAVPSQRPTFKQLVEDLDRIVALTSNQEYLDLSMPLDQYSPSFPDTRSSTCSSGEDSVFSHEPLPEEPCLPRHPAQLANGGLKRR
Compound,Kd (FGFR1) [nM],Kd (FGFR2) [nM],Kd (FGFR3) [nM],Kd (FGFR4) [nM]
"COc1cc2[nH]nc(-c3cc(C#N)cc(C4CC4)c3)c2cc1O[C@H](C)c1c(C)cnnc1C [Example 117, (R)-3-cyclopropyl-5-(5-(1-(3,5-dimethylpyridazin-4-yl)ethoxy)-6-methoxy-1H-indazol-3-yl)benzonitrile]",100 to 250,250 to 1000,100 to 250,0.1 to 100
"COc1cc(-c2n[nH]c3ccc(O[C@H](C)c4c(Cl)cnc(F)c4Cl)cc23)cc2c1OC1(CCN(C(C)C)CC1)OC2 [Example 123, (R)-6-(5-(1-(3,5-dichloro-2-fluoropyridin-4-yl)ethoxy)-1H-indazol-3-yl)-1′-isopropyl-8-methoxy-4H-spiro[benzo[d][1,3]dioxine-2,4′-piperidine]]",250 to 1000,250 to 1000,0.1 to 100,0.1 to 100
"COc1cc(-c2n[nH]c3ccc(O[C@H](C)c4c(Cl)cncc4Cl)cc23)cc(C#N)c1OC1CCN(C(C)C)CC1 [Example 126, 5-[5-[(1R)-1-(3,5-dichloro-4-pyridyl)ethoxy]-1H-indazol-3-yl]-2-[(1-isopropyl-4-piperidyl)oxy]-3-methoxy-benzonitrile]",250 to 1000,> 1000,250 to 1000,0.1 to 100
"Cc1cnnc(C)c1[C@@H](C)Oc1ccc2[nH]nc(-c3cnc(O[C@H]4CCOC4)c(C#N)c3)c2c1 [Example 127, 5-(5-((R)-1-(3,5-dimethylpyridazin-4-yl)ethoxy)-1H-indazol-3-yl)-2-(((S)-tetrahydrofuran-3-yl)oxy)nicotinonitrile]",100 to 250,0.1 to 100,0.1 to 100,0.1 to 100
"Cc1cnnc(C)c1[C@@H](C)Oc1ccc2[nH]nc(-c3cnc(O[C@@H]4CCOC4)c(C#N)c3)c2c1 [Example 128, 5-(5-((R)-1-(3,5-dimethylpyridazin-4-yl)ethoxy)-1H-indazol-3-yl)-2-(((R)-tetrahydrofuran-3-yl)oxy)nicotinonitrile]",100 to 250,100 to 250,0.1 to 100,0.1 to 100
"C[C@@H](Oc1ccc2[nH]nc(-c3cnc(O[C@H]4CCOC4)c(C#N)c3)c2c1)c1c(Cl)cncc1Cl [Example 133, 5-(5-((R)-1-(3,5-dichloropyridin-4-yl)ethoxy)-1H-indazol-3-yl)-2-(((S)-tetrahydrofuran-3-yl)oxy)nicotinonitrile]",100 to 250,0.1 to 100,0.1 to 100,0.1 to 100
"C[C@@H](Oc1ccc2[nH]nc(-c3cnc(O[C@@H]4CCOC4)c(C#N)c3)c2c1)c1c(Cl)cncc1Cl [Example 134, 5-(5-((R)-1-(3,5-dichloropyridin-4-yl)ethoxy)-1H-indazol-3-yl)-2-(((R)-tetrahydrofuran-3-yl)oxy)nicotinonitrile]",100 to 250,0.1 to 100,0.1 to 100,0.1 to 100
"C[C@@H](Oc1cc2c(-c3cnc(O[C@@H]4CCOC4)c(C#N)c3)n[nH]c2cc1F)c1c(Cl)cncc1Cl [Example 138, 5-(5-((R)-1-(3,5-dichloropyridin-4-yl)ethoxy)-6-fluoro-1H-indazol-3-yl)-2-(((R)-tetrahydrofuran-3-yl)oxy)nicotinonitrile]",100 to 250,250 to 1000,0.1 to 100,0.1 to 100
"C[C@@H](Oc1ccc2[nH]nc(-c3cnc4c(c3)N(CC(F)(F)F)CCO4)c2c1)c1c(Cl)cncc1Cl [Example 139, (R)-7-(5-(1-(3,5-dichloropyridin-4-yl)ethoxy)-1H-indazol-3-yl)-1-(2,2,2-trifluoroethyl)-2,3-dihydro-1H-pyrido[2,3-b][1,4]oxazine 2,2,2-trifluoroacetate]",> 1000,> 1000,> 1000,> 1000
"COc1cc2[nH]nc(-c3cnc4c(c3)N(S(C)(=O)=O)CCO4)c2cc1O[C@H](C)c1c(Cl)cncc1Cl [Example 140, 7-[5-[(1R)-1-(3,5-dichloro-4-pyridyl)ethoxy]-6-methoxy-1H-indazol-3-yl]-1-methylsulfonyl-2,3-dihydropyrido[2,3-b][1,4]oxazine]",250 to 1000,250 to 1000,100 to 250,0.1 to 100
"CC(C)N1CCOc2ncc(-c3n[nH]c4ccc(O[C@H](C)c5c(Cl)cncc5Cl)cc34)cc21 [Example 141, (R)-7-(5-(1-(3,5-dichloropyridin-4-yl)ethoxy)-1H-indazol-3-yl)-1-isopropyl-2,3-dihydro-1H-pyrido[2,3-b][1,4]oxazine]",> 1000,> 1000,> 1000,0.1 to 100
"C[C@@H](Oc1ccc2[nH]nc(-c3cnc4c(c3)N(CC(F)F)CCO4)c2c1)c1c(Cl)cncc1Cl [Example 142, (R)-7-(5-(1-(3,5-dichloropyridin-4-yl)ethoxy)-1H-indazol-3-yl)-1-(2,2-difluoroethyl)-2,3-dihydro-1H-pyrido[2,3-b][1,4]oxazine]",> 1000,> 1000,> 1000,250 to 1000

# Continued, values first:
Kd (FGFR1) [nM],Kd (FGFR2) [nM],Kd (FGFR3) [nM],Kd (FGFR4) [nM],Compound
0.1 to 100,0.1 to 100,0.1 to 100,0.1 to 100,"COc1cc2[nH]nc(-c3cc(C)c(OC)c(C#N)c3)c2cc1O[C@H](C)c1c(C)cnnc1C [Example 116, (R)-5-(5-(1-(3,5-dimethylpyridazin-4-yl)ethoxy)-6-methoxy-1H-indazol-3-yl)-2-methoxy-3-methylbenzonitrile]"
0.1 to 100,0.1 to 100,0.1 to 100,0.1 to 100,"Cc1cc(-c2n[nH]c3ccc(O[C@H](C)c4c(C)cnnc4C)cc23)cc(C#N)c1OC1CCN(C2CCC2)CC1 [Example 120, (R)-2-((1-cyclobutylpiperidin-4-yl)oxy)-5-(5-(1-(3,5-dimethylpyridazin-4-yl)ethoxy)-1H-indazol-3-yl)-3-methylbenzonitrile]"
0.1 to 100,0.1 to 100,0.1 to 100,0.1 to 100,"CCN1CCC2(CCc3cc(-c4n[nH]c5ccc(O[C@H](C)c6c(Cl)cncc6Cl)cc45)ccc3O2)CC1 [Example 121, 6-[5-[(1R)-1-(3,5-dichloro-4-pyridyl)ethoxy]-1H-indazol-3-yl]-1′-ethylspiro[chromane-2,4′-piperidine]]"
0.1 to 100,0.1 to 100,0.1 to 100,0.1 to 100,"C[C@@H](Oc1ccc2[nH]nc(-c3cnc(OCC(C)(C)O)c(C#N)c3)c2c1)c1c(Cl)cncc1Cl [Example 122, 5-[5-[(1R)-1-(3,5-dichloro-4-pyridyl)ethoxy]-1H-indazol-3-yl]-2-(2-hydroxy-2-methyl-propoxy)pyridine-3-carbonitrile]"
0.1 to 100,0.1 to 100,0.1 to 100,0.1 to 100,"CC(C)N1CCC(Oc2ccc(-c3n[nH]c4ccc(O[C@H](C)c5c(Cl)cncc5Cl)cc34)cc2C#N)CC1 [Example 124, 5-[5-[(1R)-1-(3,5-dichloro-4-pyridyl)ethoxy]-1H-indazol-3-yl]-2-[(1-isopropyl-4-piperidyl)oxy]benzonitrile]"
0.1 to 100,0.1 to 100,0.1 to 100,0.1 to 100,"COc1cc(-c2n[nH]c3ccc(O[C@H](C)c4c(C)cnnc4C)cc23)cc2c1OC1(CCN(C(C)C)CC1)OC2 [Example 125, (R)-6-(5-(1-(3,5-dimethylpyridazin-4-yl)ethoxy)-1H-indazol-3-yl)-1′-isopropyl-8-methoxy-4H-spiro[benzo[d][1,3]dioxine-2,4′-piperidine]]"
0.1 to 100,0.1 to 100,0.1 to 100,0.1 to 100,"C[C@@H](Oc1ccc2[nH]nc(-c3cnc(N[C@H]4CCOC4)c(C#N)c3)c2c1)c1c(Cl)cncc1Cl [Example 129, 5-(5-((R)-1-(3,5-dichloropyridin-4-yl)ethoxy)-1H-indazol-3-yl)-2-(((S)-tetrahydrofuran-3-yl)amino)nicotinonitrile]"
0.1 to 100,0.1 to 100,0.1 to 100,0.1 to 100,"C[C@@H](Oc1ccc2[nH]nc(-c3cnc(N[C@@H]4CCOC4)c(C#N)c3)c2c1)c1c(Cl)cncc1Cl [Example 130, 5-(5-((R)-1-(3,5-dichloropyridin-4-yl)ethoxy)-1H-indazol-3-yl)-2-(((R)-tetrahydrofuran-3-yl)amino)nicotinonitrile]"
0.1 to 100,0.1 to 100,0.1 to 100,0.1 to 100,"COc1cc2[nH]nc(-c3cnc(N(C)C)c(C#N)c3)c2cc1O[C@H](C)c1c(Cl)cncc1Cl [Example 131, 5-[5-[(1R)-1-(3,5-dichloro-4-pyridyl)ethoxy]-6-methoxy-1H-indazol-3-yl]-2-(dimethylamino)pyridine-3-carbonitrile]"
0.1 to 100,0.1 to 100,0.1 to 100,0.1 to 100,"C[C@@H](Oc1ccc2[nH]nc(-c3cnc(NC4CCOCC4)c(C#N)c3)c2c1)c1c(Cl)cncc1Cl [Example 132, (R)-5-(5-(1-(3,5-dichloropyridin-4-yl)ethoxy)-1H-indazol-3-yl)-2-((tetrahydro-2H-pyran-4-yl)amino)nicotinonitrile]"
0.1 to 100,0.1 to 100,0.1 to 100,0.1 to 100,"Cc1cc2[nH]nc(-c3cnc(O[C@@H]4CCOC4)c(C#N)c3)c2cc1O[C@H](C)c1c(Cl)cncc1Cl [Example 135, 5-(5-((R)-1-(3,5-dichloropyridin-4-yl)ethoxy)-6-methyl-1H-indazol-3-yl)-2-(((R)-tetrahydrofuran-3-yl)oxy)nicotinonitrile]"
0.1 to 100,0.1 to 100,0.1 to 100,0.1 to 100,"COc1cc2[nH]nc(-c3cnc(O[C@@H]4CCOC4)c(C#N)c3)c2cc1O[C@H](C)c1c(Cl)cncc1Cl [Example 136, 5-(5-((R)-1-(3,5-dichloropyridin-4-yl)ethoxy)-6-methoxy-1H-indazol-3-yl)-2-(((R)-tetrahydrofuran-3-yl)oxy)nicotinonitrile]"
